Measurements: patent publication US6740497B2, “Method and apparatus for detecting cancerous cells using molecules that change electrophoretic mobility” (The Regents of the University of California, priority 1998, dated 2004)
Peptide text beside a SMILES is read from it. * marks the point of attachment. 5FAM = O=C1OC2(c3ccc(O)cc3Oc3cc(O)ccc32)c2ccc(C(=O)*)cc21

Tests used:
[1] = tested on: protein kinase C (PKC); test: Intracellular Fl-sPKC phosphorylation by PKC in single Xenopus laevis oocytes (PERT CE sampling, MEKC); assay type: cell-based
Experimental: Oocytes 46′ were surgically obtained from pigmented or albino Xenopus laevis frogs and were cultured as described previously. Oocytes 46′ were microinjected by means of an injector mounted on a low power dissecting microscope (not shown) with 50 nl of reporter substrate peptide (0.5-200 μM) in buffer B, and then incubated for 30 min to permit diffusion of the peptide through the oocyte 46′. For measurements, oocytes 46′ were placed in buffer C (96 mM NaCl, 2 mM KCl, 1.8 mM CaCl2, 1 mM MgCl2, 5 mM Hepes, pH 7.6). When LPA (1-oleoyl-2-hydroxy-sn-glycero-3-phosphate, Avanti Polar Lipids, Alabaster, Ala.) was added to the oocytes 46′, fatty acid-free bovine serum albumen (5%) was used as a carrier as described previously.
All samples from the oocytes 46′ were obtained and electrophoresed by a method referred to as piezoelectric sampling/rapid translation/capillary electrophoresis (PERT CE). The apparatus used for PERT CE is illustrated in FIGS. 8A-B. FIGS. 8A and 8B are diagrammatic depictions of the components of the apparatus used to make measurements of intracellular enzyme activity from single Xenopus laevis oocytes 46′. […] The holder is part of a complete apparatus for automatically sampling oocyte cytoplasm and rapidly subjecting this sample to electrophoresis before any substantial change in the substrate molecules can occur. This is achieved by providing a sharpened electrophoresis capillary 22 attached to a high speed translation system to plunge the capillary into the cell to capture a plug of cytoplasm. Then the capillary is automatically withdrawn from the oocyte and rapidly moved to make electrical contact with a reservoir 134 of electrophoresis buffer so that electrophoresis of the substrate molecules within the “plug” commences before any additional chemical reactions occur.
To obtain cytoplasm, the capillary 22 was driven 60 μm into the oocyte 46′ by the piezoelectric element. […] The capillary 22 was then automatically withdrawn from the cytoplasm. […] Electrophoresis was initiated immediately. […]

[2] = tested on: protein kinase C (PKC); test: Net intracellular PKC activity in single RBL cells: microinjected Fl-sPKC reporter, laser lysis, capillary electrophoresis, laser-induced fluorescence; assay type: cell-based, rat; settings: RBL cell
Experimental: FIGS. 2A-C and 3A-C are two sets of graphs of three stacked electrophoretograms of reporter substrate molecule separations all made under identical electrophoretic conditions on the same day. In the first embodiment, illustrated by FIGS. 2A-C and FIGS. 3A-C, rat basophilic leukemia (RBL) cells, from the tumor mast cell line RBL-2H3, were used. These cells were grown at 37° C. and 5% CO2 in Dulbecco's modified eagle medium (DMEM) supplemented with 10% fetal bovine serum, and L-glutamine ([…]). Penicillin (100 units/ml) and streptomycin (100 μg/ml) were added to the media to inhibit bacterial growth. […] The cells 46 were plated at concentrations determined empirically to produce approximately one cell per 100× field of view on the day of the measurement. […]
In the first embodiment, the microscopy system of FIG. 9 used for cell lysis was similar to that described previously in the incorporated application entitled “Fast Controllable Laser Lysis of Cells for Analysis”. The frequency-doubled Q-switched Nd:YAG laser 18 (Minilite II, Continuum, Santa Clara, Calif.; Minilase II-20, New Wave Research, Sunnyvale, Calif.) was used to generate a single pulse (1-25 μJ, 5-ns pulse width, 532 nm) directed into a fluorescence microscope 12 (Axiovert 135, Zeiss, Thornwood, N.Y.). […]

[3] = tested on: protein kinase C (PKC); test: Time course of intracellular Fl-sPKC phosphorylation by PKC in single NIH/3T3 cells (laser lysis, capillary electrophoresis); assay type: cell-based, murine; settings: 100 nM PMA, 5 minute time point, room temperature, FIG. 12
[4] = tested on: RBL cell; test: Intracellular side reactions (degradation/modification) of the Fl-sPKC reporter in a microinjected RBL cell; assay type: cell-based, rat; settings: 200 μM Pefabloc present, with or without PMA, FIGS. 2B and 2C
Experimental: In the measurements illustrated by FIG. 2A-C, prior to mounting on the microscope stage for microinjection and analysis at room temperature (20°-23° C.), each cell chamber 199 was treated by addition of 10 μl of 10 mM Pefabloc (Boehringer-Mannheim, Indianapolis, Ind.) in buffer A with gentle manually pipetted mixing using a Pipetman® (Rainin, Woburn, Mass.).
This yielded a final Pefabloc concentration of 200 μM. Pefabloc is a soluble, physiologically tolerated, inhibitor of serine proteases, a subset of intracellular enzymes that tend to degrade peptides. Pefabloc was included to minimize intracellular degradation of Fl-sPKC. […]
In the measurements illustrated by FIGS. 2A-C, Fl-sPKC was diluted in buffer B, a physiologically compatible intracellular buffer composed of 10 mM Hepes and 140 mM KCl, at pH 7.4. […] The cells 46 that had been successfully microinjected were identified by visual observation of internal Calcium Orange epi-fluorescence through a set of TRITC filters (Chroma Technology Corp., Brattleboro, Vt.) (not shown, but included in the microscope 12) to minimize photodestruction of the fluorescein moiety on Fl-sPKC. […]
Clearly activation of an intracellular kinase by a potent pharmacologic activator can be measured by this approach. Furthermore, both electrophoretograms in FIGS. 2B and 2C show the presence of peaks that cannot be readily identified. […]

Row | SMILES | collected fluorescence corresponding to P-Fl-sPKC ([1]; Xenopus oocyte, 10 μM PMA for 10 minutes, ~10 μM reporter substrate, FIG. 4D) | degree of reporter substrate phosphorylation ([1]; Xenopus oocyte, 10 μM PMA for three minutes, FIG. 5) | average rate of Fl-sPKC phosphorylation within oocytes ([1]; Xenopus oocytes, 10 μM activator, intermediate time points, FIGS. 6A/6B) [nM/s] | Fl-sPKC peak versus P-Fl-sPKC peak (net PKC activity) ([2]; 100 nM PMA, 5 minutes, FIG. 2C) | PKC activation (peaks matching P-Fl-sPKC) ([2]; 1 μM PMA for 10 minutes before microinjection of Fl-sPKC and Fl-sPKA, FIG. 11C) | phosphorylation level of Fl-sPKC [3] [%] | side products as share of collected fluorescence [4]
1 | CCCCCCCCCCCCCC(=O)O[C@@H]1[C@@H](C)[C@@]2(O)[C@@H](C=C(CO)C[C@]3(O)C(=O)C(C)=C[C@@H]23)[C@@H]2C(C)(C)[C@]12OC(C)=O [PMA, phorbol myristic acid] | essentially all collected fluorescence | intermediate degree of reporter substrate phosphorylation | 25 ± 15 | nearly equal magnitude | small, but measurable amount of PKC activation | ~50 | 
2 | CC(C)C[C@H](NC(=O)[C@H](CO)NC(=O)CNC(=O)[C@H](CCCCN)NC(=O)[C@H](CCCNC(=N)N)NC(=O)[C@H](C)NC(=O)[C@H](Cc1ccccc1)NC(=O)[C@H](CCCNC(=N)N)NC(=O)c1ccc2c(c1)C(=O)OC21c2ccc(O)cc2Oc2cc(O)ccc21)C(=O)N[C@@H](CCCNC(=N)N)C(=O)N[C@@H](CCC(N)=O)C(=O)N[C@@H](CCCCN)C(=O)N[C@@H](CC(N)=O)C(=O)N[C@H](C(=O)O)C(C)C [Fl-sPKC, Fl- Arg-Phe-Ala-Arg-Lys-Gly-Ser-Leu-Arg-Gln-Lys-Asn-Val] (5FAM-RFARKGSLRQKNV-OH) |  |  |  |  |  |  | about 50%
